Entries after “also recorded” stand apart in the source; their conditions may differ. Oligonucleotides are written 5' to 3', each unit as a sugar letter and its base; * is a phosphorothioate linkage, no mark a phosphodiester; rarer units and linkages stand in square brackets, end groups in braces. Plain capitals give the bases only. d = 2'-deoxy (DNA)
How the values were obtained:
Assay type in all cases: cell-based, human
[1] = test system: MMP-activity in MDA-MB-231 cells; test: gelatin zymogram of MDA-MB-231 supernatants; settings: 2 μM added to final incubation of gels
Experimental: Zymograms. The zymograms were performed as previously described (Suarex-Cuervo et al., Clin. Exp. Metastasis 21:525-33 (2004)). In this assay, the gelatinolytic bands represent the following MMPs: 120 kDa band represents MMP-9 and neutrophil gelatinase associated lipocalin complex, 90 kDa band represents pro-MMP-9 and the 72 kDa band represents proMMP-2. Briefly, MDA-MB-231 cells were plated on 12-well plates and allowed to reach confluency. The cells were then rinsed with PBS and serum-free medium, with the indicated concentrations of type C CpG-ODNs, type C non-CpG-ODNs or vehicle was applied for 24 h.

[2] = test system: MDA-MB-231 cells; test: Matrigel invasion assay, MDA-MB-231 cells
Experimental: (§1) In vitro invasion assays. For the Matrigel-invasion assay the cells were plated at the density of 5×10^4 (MDA-MB-231, U373, D54MG), 15×10^4 (T47-D) or 30×10^4 (MCF-7) cells per upper well in 750 μl of normal culture medium (Virtanen et al., Cancer Res. 62:2708-14 (2002)), indicated concentrations of the various CpG-ODNs, non-CpG-ODNs or vehicle were added to both the upper and lower wells. When indicated, aprotinin (2 μM), GM6001 (2 μM), MMP-8 inhibitor 1 (8 nM) or the same volume of the corresponding control compound, control IgG or neutralizing anti-MMP-13 antibody (R& D Systems, Minneapolis, Minn., both at 12 μg/ml) or chloroquine (10 μM) were also added to both upper and lower wells. The cells were allowed to invade for 18 h, after which the inserts were removed and stained with the Hema 3 Stain set (Fisher Diagnostics, Middletown, Pa.), according to the manufacturer's recommendation. The number of invaded cells was counted from 5 pre-selected microscopic fields using a 40× objective. To assess invasion in a three-dimensional type I collagen gel, acid solubilized type I collagen (0.9 ml) was added to the Costar Transwell dishes (Corning, Inc., Corning, N.Y.) and gelled over 45 min at 37° C. The collagen was prepared using rat-tail type 1 collagen dissolved in 0.2% acetic acid at 3.2 mg/ml and gelled by neutralizing the acid with 0.3 N NaOH containing phenol red as a pH indicator. A final concentration of 3.0 mg/ml was obtained. Media, containing vehicle or 10 μM type C CpG-ODN was men added to the upper and lower chambers prior to the addition of 5×10^5 cells to the surface of the collagen gel in the presence of serum-containing medium. […] Tumor cell invasion (depth and number of cells below the surface) was assessed by light microscopy in a minimum of four randomly selected sections for each experimental sample. The number of invading cells per high power field (400×) were counted and averaged. The depth of invasion was also measured in four randomly selected areas for each sample using photomicrograph of each sample.

[3] = test system: PC-3 cells; test: Matrigel invasion assay, PC-3 cells
Experimental: In vitro invasion assays. For the Matrigel-invasion assay the cells were plated at the density of 5×10^4 (PC-3, Du-145, LnCaP and MDA PCa 2b) cells per upper well in 500 μl of normal culture medium, Indicated concentrations of the various CpG-ODNs, bacterial DNA (E. Coli, Sigma, St. Louis, Mo.) or vehicle were added to both the upper and lower wells. When indicated, p38- or JNK-inhibitor (both at final concentration of 10^−5 M), control IgG or neutralizing anti-MMP-13 antibody (R&. D Systems, Minneapolis, Minn., both at 12 μg/ml) or chloroquine (10 μM) were also added to both upper and lower wells. […] The number of invaded cells were counted from 5 pre-selected microscopic fields using a 40× objective.

[4] = test system: NFκB reporter gene; test: NFκB reporter gene assay in transfected MDA-MB-231 pools
Experimental: MDA-MB-231 cells were stably transfected with pIRES-EGFP empty vector (EV) or with pIRES-EGFP-TRAF6DN-Flag. Stable pools were Flow-sorted for the expression of EGFP for 3 cycles. […] The same blots were stripped and re-blotted with antibodies against Flag, GFP and actin. For FIG. 12B, the various cells were transiently transfected with a NFκB reporter gene and treated with CpG-ODN or TNF-α. Reporter gene activation was calculated as fold-increase vs. vehicle-treatment. Mean±SD, n=6. * p<0.05, *** p<0.001 pIRES-EV vs. pIRES-EGFP-TRAF6DN. For FIG. 12C, the pIRES-EGFP and pIRES-EGFP-TRAF6DN cells were plated on Matrigel-assays and treated with vehicle or with 2 or 10 μM Non-CpG-ODN or CpG-ODN, The number of invaded cells were counted microscopically 22 h later. Data are expressed as fold-increase in treatment-induced invasion, mean±sd, n±3-6. * p<0.05, ** p<0.01 pIRES-EGFP vs. pIRES-EGFP-TRAF6DN.
Stable transfection of TRAF6 into MDA-MB-231 breast cancer cells. The cDNA encoding for dominant negative TRAF6 has been described previously (Yeo et al., (2003) J. Biol. Chem. 278:22563-22573). The pIRES-EGF-DNTRAF6-Flag and pIRES-EGF were stably transfected into the MDA-MB-231 cells. The established stable pools were submitted to three cycles of Flow-sorting for highest emission of GFP, to enrich the populations of transfected cells. […]

[5] = test system: MDA-MB-231, T47-D or MCF-7 cells; test: MTS cell viability assay, breast cancer cells
Experimental: Cell viability assays. MDA-MB-231, T47-D or MCF-7 cells were plated at the density of 1000 cells/well in 96-well plates in normal culture medium, and cultured for the indicated periods of time with 10 μM type C CpG-ODN or vehicle. Cell viability was assessed after MTS was added for the final 2 hours of the experimental cultures as recommended by the manufacturer (CellTiter 96 AQueous Non-Radioactive Cell Proliferation Assay, Promega, Madison, Wis.).

[6] = test system: MCF-7 breast cancer cells; test: Matrigel invasion assay, MCF-7 cells; settings: 1 and 10 μM
Experimental: as §1, with “objective.” for “objective. To assess invasion in a three-dimensional type I collagen gel, acid solubilized type I collagen (0.9 ml) was added to the Costar Transwell dishes (Corning, Inc., Corning, N.Y.) and gelled over 45 min at 37° C. The collagen was prepared using rat-tail type 1 collagen dissolved in 0.2% acetic acid at 3.2 mg/ml and gelled by neutralizing the acid with 0.3 N NaOH containing phenol red as a pH indicator. A final concentration of 3.0 mg/ml was obtained. Media, containing vehicle or 10 μM type C CpG-ODN was men added to the upper and lower chambers prior to the addition of 5×10^5 cells to the surface of the collagen gel in the presence of serum-containing medium.”

[7] = test system: MCF-10A mammary epithelial cells; test: Matrigel invasion assay, MCF-10A cells; settings: 1 and 10 μM

CNC(=O)[C@H](Cc1c[nH]c2ccccc12)NC(=O)[C@@H](CC(=O)NO)CC(C)C [GM6001] was tested, and the “effect on CpG-ODN-induced gelatinolytic band of about 50 kDa” value [1] was “abolished; also recorded: did disappear” and the “effect on type C CpG-induced invasion of MDA-MB-231 cells” value ([2]; inhibitor 2 μM, type C CpG-ODN 10 μM) was “inhibited CpG-ODN-induced invasion; also recorded: inhibited by the MMP inhibitor”.

CCN(CC)CCCC(C)Nc1ccnc2cc(Cl)ccc12 (stereo not drawn) [chloroquine] was tested, and the “effect of chloroquine on E. coli DNA-induced invasion of PC-3 cells” value ([3]; chloroquine 10 μM, 1000 ng/ml E. coli DNA, 20 h) was “inhibited”, the “effect of chloroquine on CpG-ODN-induced invasion of PC-3 cells” value ([3]; chloroquine 10 μM, CpG-ODN 5 μM, 18 h) was “significantly inhibited; also recorded: inhibits CpG-ODN-induced invasion” and the “effect on non-CpG-ODN-induced invasion” value ([2]; chloroquine 10 μM, non-CpG-ODN 10 μM, 18 h) was “inhibited”. For the same compound, the “effect on CpG-ODN-induced invasion” value ([2]; chloroquine 10 μM, type C CpG-ODN 10 μM, 18 h) was “blocked; also recorded: inhibited”.

In the case of C[S+]([O-])c1ccc(-c2nc(-c3ccncc3)c(-c3ccc(F)cc3)[nH]2)cc1 (stereo not drawn) [p38 inhibitor, SB203580], the “effect of MAP-kinase inhibitors on CpG-ODN-induced invasion of PC-3 cells” value ([3]; inhibitor 10^−5 M, CpG-ODN 5 μM, 18 h) was “Neither of these inhibitors affected CpG-ODN-induced invasion”.

With TNF-α the “NFκβ-promoter activity in empty vector cells” value ([4]; pIRES-EGFP empty vector MDA-MB-231) was “significant increase in NFκβ-promoter activity” and the “NFκβ-promoter activity in TRAF6DN-pool” value ([4]; pIRES-EGFP-TRAF6DN MDA-MB-231) was “blunted”.

For aprotinin, the “effect on CpG-ODN-induced gelatinolytic band of about 50 kDa” value [1] was “did not disappear; also recorded: not inhibited”.

With “type C non-CpG-ODN: 5′-tgc tgc tgc tig caa gca get tga t-3′ (SEQ ID NO:6), non-CpG-ODN control (DNA dT*dG*dC*dT*dG*dC*dT*dG*dC*dT*dT*dG*dC*dA*dA*dG*dC*dA*dG*dC*dT*dT*dG*dA*dT)” the “cell viability (MTS), longer incubation” value [5] was “significantly decreased viability”, the “invasion of TLR9 negative MCF-7 cells” value [6] was “did not, however, stimulate invasion” and the “invasion of TLR9 negative MCF-7 cells” value ([6]; listed as non-CpG-ODN) was “no significant effect”. For the same compound, the “invasion of MCF-10A cells” value [7] was “stimulated invasion” and the “invasion of MCF-10A cells” value ([7]; listed as non-CpG-ODN) was “induced a significant invasion response”.
